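Results reflect a 48-hour exposure of cells in 96-well plates to compound at five concentrations. The concentration for 50% growth inhibition is given as GI50.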 Activity calls are given as the source filed them. No stated cut-off is given here; in the data, active = GI50 up to about 1.1 µM and inactive = higher.
Tests used:
Assay in all cases: growth of human tumour cells (NCI), 48 h
EKVX = system: EKVX
NCI-H226 = system: NCI-H226
MOLT-4 = system: MOLT-4
SN12C = system: SN12C
SK-MEL-5 = system: SK-MEL-5
SK-MEL-2 = system: SK-MEL-2
SK-OV-3 = system: SK-OV-3
COLO 205 = system: COLO 205
786-0 = system: 786-0
HCT-116 = system: HCT-116
A549 = system: A549
UACC-62 = system: UACC-62
SNB-19 = system: SNB-19
M14 = system: M14
BT-549 = system: BT-549
SW-620 = system: SW-620
OVCAR-4 = system: OVCAR-4
SF-539 = system: SF-539
HOP-62 = system: HOP-62
TK-10 = system: TK-10
NCI/ADR-RES = system: NCI/ADR-RES
U-251 = system: U-251
UO-31 = system: UO-31
NCI-H23 = system: NCI-H23
HT-29 = system: HT-29
HCT-15 = system: HCT-15
Hs-578T = system: Hs-578T
IGROV-1 = system: IGROV-1
A498 = system: A498
UACC-257 = system: UACC-257
NCI-H522 = system: NCI-H522
SNB-75 = system: SNB-75
HOP-92 = system: HOP-92
MDA-MB-435 = system: MDA-MB-435
CAKI-1 = system: CAKI-1
SF-295 = system: SF-295
MDA-MB-231 = system: MDA-MB-231
T47D = system: T47D
ACHN = system: ACHN
KM12 = system: KM12
RPMI-8226 = system: RPMI-8226
OVCAR-5 = system: OVCAR-5
OVCAR-3 = system: OVCAR-3
SF-268 = system: SF-268
SK-MEL-28 = system: SK-MEL-28
PC-3 = system: PC-3
RXF 393 = system: RXF 393
LOX IMVI = system: LOX IMVI
MDA-N = system: MDA-N
HL-60 = system: HL-60
OVCAR-8 = system: OVCAR-8
CCRF-CEM = system: CCRF-CEM
HCC 2998 = system: HCC 2998
MCF7 = system: MCF7
Malme-3M = system: Malme-3M
DU-145 = system: DU-145
K562 = system: K562
NCI-H460 = system: NCI-H460
SR = system: SR

C=C1C(=O)O[C@@H]2C[C@@]3(C)CC(=O)C=C(C)[C@@H]3C[C@H]12 was tested, and the GI50 (EKVX) was 12.2 µM (inactive), the GI50 (NCI-H226) was 36.8 µM (inactive) and the GI50 (MOLT-4) was 3.04 µM (inactive). For the same compound, the GI50 (SN12C) was 11.1 µM (inactive), the GI50 (SK-MEL-5) was 10 µM (inactive) and the GI50 (SK-MEL-2) was 12.9 µM (inactive). The GI50 (SK-OV-3) was 37.9 µM (inactive), the GI50 (COLO 205) was 3.37 µM (inactive) and the GI50 (786-0) was 12.4 µM (inactive). The GI50 (HCT-116) was 5.32 µM (inactive), the GI50 (A549) was 29.6 µM (inactive) and the GI50 (UACC-62) was 14.6 µM (inactive). For the same compound, the GI50 (SNB-19) was 17.3 µM (inactive), the GI50 (M14) was 13.5 µM (inactive) and the GI50 (BT-549) was 10.8 µM (inactive). The GI50 (SW-620) was 3.33 µM (inactive), the GI50 (OVCAR-4) was 9.1 µM (inactive) and the GI50 (SF-539) was 13.3 µM (inactive). The GI50 (HOP-62) was 18 µM (inactive), the GI50 (TK-10) was 10.2 µM (inactive) and the GI50 (NCI/ADR-RES) was 11.3 µM (inactive). For the same compound, the GI50 (U-251) was 15.5 µM (inactive), the GI50 (UO-31) was 11.5 µM (inactive) and the GI50 (NCI-H23) was 13.8 µM (inactive). For the same compound, the GI50 (HT-29) was 6.14 µM (inactive), the GI50 (HCT-15) was 4.03 µM and the GI50 (Hs-578T) was 27.2 µM (inactive). The GI50 (IGROV-1) was 13.3 µM (inactive), the GI50 (A498) was > 10 µM (inactive) and the GI50 (UACC-257) was 12.2 µM (inactive). For the same compound, the GI50 (NCI-H522) was 4.46 µM (inactive), the GI50 (SNB-75) was 16.1 µM (inactive) and the GI50 (HOP-92) was 16.3 µM (inactive). For the same compound, the GI50 (MDA-MB-435) was 5.66 µM (inactive), the GI50 (CAKI-1) was 8.36 µM (inactive) and the GI50 (SF-295) was 33.1 µM (inactive). The GI50 (MDA-MB-231) was 16.9 µM (inactive), the GI50 (T47D) was 11.2 µM (inactive) and the GI50 (ACHN) was 2.69 µM (inactive). The GI50 (KM12) was 18.6 µM (inactive), the GI50 (RPMI-8226) was 2.12 µM (inactive) and the GI50 (OVCAR-5) was 14.7 µM (inactive). For the same compound, the GI50 (OVCAR-3) was 6.15 µM (inactive), the GI50 (SF-268) was 11.8 µM (inactive) and the GI50 (SK-MEL-28) was 5.73 µM (inactive). For the same compound, the GI50 (PC-3) was 18.2 µM (inactive), the GI50 (RXF 393) was 3.94 µM (inactive) and the GI50 (LOX IMVI) was 13.9 µM (inactive). The GI50 (MDA-N) was 3.74 µM (inactive), the GI50 (HL-60) was 1.71 µM (inactive) and the GI50 (OVCAR-8) was 15 µM (inactive). For the same compound, the GI50 (CCRF-CEM) was 5.83 µM (inactive), the GI50 (HCC 2998) was 14.2 µM (inactive) and the GI50 (MCF7) was 3.22 µM (inactive). The GI50 (Malme-3M) was 5.98 µM (inactive) and the GI50 (DU-145) was 4.29 µM (inactive).

For COc1ccc(-c2nc(N3CCCC3)no2)cc1, the GI50 (EKVX) was 25.9 µM (inactive), the GI50 (NCI-H226) was 42.7 µM (inactive) and the GI50 (MOLT-4) was > 100 µM (inactive). For the same compound, the GI50 (SN12C) was 74 µM (inactive), the GI50 (SK-MEL-5) was 53.6 µM (inactive) and the GI50 (SK-MEL-2) was 46.1 µM (inactive). For the same compound, the GI50 (SK-OV-3) was 58.9 µM (inactive), the GI50 (COLO 205) was > 100 µM (inactive) and the GI50 (786-0) was 36.3 µM (inactive). For the same compound, the GI50 (HCT-116) was > 91.8 µM (inactive), the GI50 (A549) was 38 µM (inactive) and the GI50 (UACC-62) was 31 µM (inactive). For the same compound, the GI50 (SNB-19) was 44.1 µM (inactive), the GI50 (M14) was 81.3 µM (inactive) and the GI50 (BT-549) was 43.3 µM (inactive). The GI50 (SW-620) was > 100 µM (inactive), the GI50 (OVCAR-4) was 34 µM (inactive) and the GI50 (SF-539) was 24 µM (inactive). For the same compound, the GI50 (HOP-62) was 27.9 µM (inactive), the GI50 (TK-10) was > 100 µM (inactive) and the GI50 (NCI/ADR-RES) was 44.5 µM (inactive). The GI50 (U-251) was 86.3 µM (inactive), the GI50 (UO-31) was 49.4 µM (inactive) and the GI50 (NCI-H23) was 54.6 µM (inactive). The GI50 (HT-29) was 54.7 µM (inactive), the GI50 (HCT-15) was 58.9 µM and the GI50 (Hs-578T) was 24.9 µM (inactive). The GI50 (IGROV-1) was 18.9 µM (inactive), the GI50 (A498) was 31.6 µM (inactive) and the GI50 (UACC-257) was > 100 µM (inactive). For the same compound, the GI50 (NCI-H522) was 39.1 µM (inactive), the GI50 (SNB-75) was 34.1 µM (inactive) and the GI50 (HOP-92) was 48.4 µM (inactive). The GI50 (MDA-MB-435) was > 100 µM (inactive), the GI50 (CAKI-1) was 51.6 µM (inactive) and the GI50 (SF-295) was 21.2 µM (inactive). For the same compound, the GI50 (MDA-MB-231) was 50.1 µM (inactive), the GI50 (T47D) was 26.5 µM (inactive) and the GI50 (ACHN) was 35.8 µM (inactive). The GI50 (KM12) was 88.5 µM (inactive), the GI50 (RPMI-8226) was 32.7 µM (inactive) and the GI50 (OVCAR-5) was > 86.7 µM (inactive). For the same compound, the GI50 (OVCAR-3) was 72.8 µM (inactive), the GI50 (SF-268) was 53 µM (inactive) and the GI50 (K562) was 60.3 µM (inactive). For the same compound, the GI50 (SK-MEL-28) was > 100 µM (inactive), the GI50 (PC-3) was 41.6 µM (inactive) and the GI50 (RXF 393) was 22 µM (inactive). The GI50 (LOX IMVI) was 33 µM (inactive), the GI50 (NCI-H460) was 33 µM (inactive) and the GI50 (MDA-N) was 67 µM (inactive). For the same compound, the GI50 (HL-60) was 1.5 µM (inactive), the GI50 (OVCAR-8) was 34.5 µM (inactive) and the GI50 (CCRF-CEM) was 20.7 µM (inactive). The GI50 (HCC 2998) was 73.5 µM (inactive), the GI50 (MCF7) was 43.2 µM (inactive) and the GI50 (Malme-3M) was 11.6 µM (inactive). The GI50 (DU-145) was 43.2 µM (inactive).

In the case of NC(=O)CSc1nc2ccccc2c(=O)n1N, the GI50 (EKVX) is reported as > 100 µM (inactive), the GI50 (NCI-H226) is reported as > 100 µM (inactive) and the GI50 (MOLT-4) is reported as > 100 µM (inactive). For the same compound, the GI50 (SN12C) was > 100 µM (inactive), the GI50 (SK-MEL-5) was > 100 µM (inactive) and the GI50 (SK-MEL-2) was > 100 µM (inactive). The GI50 (COLO 205) was > 100 µM (inactive), the GI50 (786-0) was > 100 µM (inactive) and the GI50 (HCT-116) was > 100 µM (inactive). The GI50 (A549) was > 100 µM (inactive), the GI50 (UACC-62) was > 100 µM (inactive) and the GI50 (SNB-19) was > 100 µM (inactive). The GI50 (M14) was > 100 µM (inactive), the GI50 (BT-549) was > 100 µM (inactive) and the GI50 (SW-620) was > 100 µM (inactive). For the same compound, the GI50 (OVCAR-4) was > 100 µM (inactive), the GI50 (SF-539) was > 100 µM (inactive) and the GI50 (TK-10) was > 100 µM (inactive). For the same compound, the GI50 (SR) was > 100 µM (inactive), the GI50 (NCI/ADR-RES) was > 100 µM (inactive) and the GI50 (U-251) was > 100 µM (inactive). The GI50 (UO-31) was > 100 µM (inactive), the GI50 (NCI-H23) was > 100 µM (inactive) and the GI50 (HT-29) was > 100 µM (inactive). For the same compound, the GI50 (HCT-15) was over 100 µM, the GI50 (Hs-578T) was > 100 µM (inactive) and the GI50 (IGROV-1) was > 100 µM (inactive). The GI50 (A498) was > 100 µM (inactive), the GI50 (UACC-257) was > 100 µM (inactive) and the GI50 (NCI-H522) was > 100 µM (inactive). The GI50 (SNB-75) was > 100 µM (inactive), the GI50 (HOP-92) was > 100 µM (inactive) and the GI50 (MDA-MB-435) was > 100 µM (inactive). For the same compound, the GI50 (CAKI-1) was > 100 µM (inactive), the GI50 (SF-295) was > 100 µM (inactive) and the GI50 (MDA-MB-231) was > 100 µM (inactive). For the same compound, the GI50 (T47D) was > 100 µM (inactive), the GI50 (ACHN) was > 100 µM (inactive) and the GI50 (KM12) was > 100 µM (inactive). For the same compound, the GI50 (RPMI-8226) was > 100 µM (inactive), the GI50 (OVCAR-5) was > 100 µM (inactive) and the GI50 (OVCAR-3) was > 100 µM (inactive). The GI50 (SF-268) was > 100 µM (inactive), the GI50 (K562) was > 100 µM (inactive) and the GI50 (SK-MEL-28) was > 100 µM (inactive). The GI50 (PC-3) was > 100 µM (inactive), the GI50 (RXF 393) was > 100 µM (inactive) and the GI50 (LOX IMVI) was > 100 µM (inactive). The GI50 (NCI-H460) was > 100 µM (inactive), the GI50 (MDA-N) was > 100 µM (inactive) and the GI50 (OVCAR-8) was > 100 µM (inactive). The GI50 (HCC 2998) was > 100 µM (inactive), the GI50 (MCF7) was > 100 µM (inactive) and the GI50 (Malme-3M) was > 100 µM (inactive). The GI50 (DU-145) was > 100 µM (inactive).
